From patent US20040244713A1, “Method for treating animals or masses of water with compositions comprising quinone compounds” (priority 2003, published 2004)
Marks after values point to notes of the source that are not given here.

Legend:
Eurytemora Affinis = assay: Toxicity test LC50 on Eurytemora Affinis; conditions: in vivo
Description: (§8) The table below lists the results of the toxicity tests performed on fish fauna and on some phyto- and zooplankton species considered among the possible targets of the claimed method.

Artemia Salina = assay: Toxicity test LC50 on Artemia Salina; conditions: in vivo
Description: as §8

Isochris Galbana = assay: Toxicity test LC50 on Isochris Galbana; format: cell-based
Description: as §8

[1] = test system: Dreissena Polimorfa Larvae; assay: Toxicity test LC50 on Dreissena Polimorfa larvae; conditions: in vivo
Description: as §8

Eimeria tenella = assay: Coccid infection in chicken, Eimeria tenella; format: in vivo; conditions: chickens (Ross males), 250 ppm of MPB in feed, inoculated orally with 50,000 oocysts; fecal count 16 hours before killing; n=6
Description: (§1) The effect of a preparation comprising menadione dimethylpirymidinol bisulfite (MPB) on coccid infection in chicken was assessed.
(§2) Composition of the preparation (per Kg of final preparation):
(§3) MPB coated with vegetable hydrogenated fatty acids (1:1 inclusion ratio) 500 g,
(§4) This preparation was added in the amount of 1 Kg per ton of feed, so that the final concentration of MPB was equal to 250 ppm of MPB (equivalent to approximately 109 ppm of menadione). Since a chicken eats on average 70-80 grams of feed per day, the daily dose of MPB was equal to approximately 17-20 mg/animal per day.
(§5) The chickens (Ross males) were raised in individual cages for four weeks with a commercial feed in comparison with the same feed integrated with said preparation at the dose of 1 Kg/ton.
(§6) At the end of the third week, the chickens were weighed and divided into uniform weight groups within each treatment and were orally inoculated (1 ml) respectively with 50,000 oocysts of Eimeria tenella or 100,000 oocysts of E. acervulina. The fecal count of the oocysts was performed (method described in Hodgson J. N. 1970, Exp. Parasitol. 28:99-102) 16 hours before killing the animals.
(§7) The coccidiostatic effect is confirmed by the score of the lesions six days after inoculation (method described by Johson J. et Al. 1970, Exp. Parasitol. 28:30-36).

[2] = Photodegradability in sunlight and UV light; format: physicochemical; conditions: 10-ppm solution in drinking water (pH 6.5-7.5)
Description: In a fully similar manner, the same behaviour is confirmed if one assesses the photodegradability in sunlight and UV light (the radiation test was performed on a 10-ppm solution in drinking water (pH 6.5-7.5)

[3] = Biodegradability OECD 301 A (92/69/EEC C4-A); format: physicochemical
Text: The degradability of a substance is normally a factor that is impossible to predict on a structural basis. […] On the basis of the available data related to the compounds that are chemically more similar to the derivatives of menadione described here, one could have expected a degradability comprised between the 0% (percentage calculated on the initial mass of product expressed as mg/l) of menadione (2-methyl-1,4-naphthalenedione) and the 17% (assessed after 28 days) of menadione sodium bisulfite (where the calculation was performed by using the OECD301 A guidelines annexed to EEC directive 92/69/EEC C4-A).
Finally, biodegradability according to the 92/69/EEC C4-A regulation was also assessed.

[4] = Hydrolysis test performed in darkness; format: physicochemical
Eimeria acervulina = assay: Coccid infection in chicken, Eimeria acervulina; format: in vivo; conditions: chickens (Ross males), 250 ppm of MPB in feed, inoculated orally with 100,000 oocysts; fecal count 16 hours before killing; n=6
Description: as §1, §2, §3, §4, §5, §6, §7

Rainbow trout = assay: Toxicity test LC50 on fish fauna, Rainbow trout; format: in vivo
Description: as §8

With `CC1(S(=O)(=O)O)CC(=O)c2ccccc2C1=O.Cc1cc(C)[nH]c(=O)n1` (stereo not drawn) [MPB, menadione dimethylpirymidinol bisulfite] the “LC50 Eurytemora Affinis” value (Eurytemora Affinis) was 5 ppm, the “LC50 Artemia Salina” value (Artemia Salina) was 5 ppm and the “LC50 Isochris Galbana” value (Isochris Galbana) was 0.5 ppm. For the same compound, the “LC50 Dreissena Polimorfa Larvae” value [1] was 1 ppm, the “Excretion of oocysts, Eimeria tenella” value (Eimeria tenella) was 0.44 ± 0.05^a ×10^8 and the “Light exp. Total Degr.” value [2] was 48 h. For the same compound, the “Light exp. ½ life” value [2] was 10 h, the “degradability compared with that of MSB” value ([3]; 7 days after the beginning of the test) was “as much as eight times higher” and the “% biodegr. OECD 301 A” value ([3]; after 7 days) was 37%. The “% biodegr. OECD 301 A” value ([3]; after 14 days) was 37%, the “% biodegr. OECD 301 A” value ([3]; after 28 days) was 40% and the “½ LIFE, hydrolysis” value ([4]; PH 6.8, in darkness) was 48 h. For the same compound, the “½ LIFE, hydrolysis” value ([4]; PH 9, in darkness) was <3 h, the “Excretion of oocysts, Eimeria acervulina” value (Eimeria acervulina) was 5.9 ± 0.8^a ×10^8 and the “LC50 Rainbow trout (assessed on 96 h)” value (Rainbow trout) was 0.4 ppm.
